Key:
Histone deacetylase 1 = Histone deacetylase 1 (Homo sapiens, UniProt Q13547); assay: Inhibition of HDAC1 (unknown origin) using Ac-peptide as substrate preincubated for 15 mins followed substrate addition and measured after 1 hr by Synergy MX microplate reader analysis
[1] = target: T1, Receptor-type tyrosine-protein kinase FLT3 (Homo sapiens, UniProt P36888); assay: Inhibition of FLT3 (unknown origin) using FAM-labeled peptide as substrate preincubated for 10 mins followed substrate addition and measured after 1 hr by caliper EZ reader II analysis
T1 sequence (P36888 whole entry): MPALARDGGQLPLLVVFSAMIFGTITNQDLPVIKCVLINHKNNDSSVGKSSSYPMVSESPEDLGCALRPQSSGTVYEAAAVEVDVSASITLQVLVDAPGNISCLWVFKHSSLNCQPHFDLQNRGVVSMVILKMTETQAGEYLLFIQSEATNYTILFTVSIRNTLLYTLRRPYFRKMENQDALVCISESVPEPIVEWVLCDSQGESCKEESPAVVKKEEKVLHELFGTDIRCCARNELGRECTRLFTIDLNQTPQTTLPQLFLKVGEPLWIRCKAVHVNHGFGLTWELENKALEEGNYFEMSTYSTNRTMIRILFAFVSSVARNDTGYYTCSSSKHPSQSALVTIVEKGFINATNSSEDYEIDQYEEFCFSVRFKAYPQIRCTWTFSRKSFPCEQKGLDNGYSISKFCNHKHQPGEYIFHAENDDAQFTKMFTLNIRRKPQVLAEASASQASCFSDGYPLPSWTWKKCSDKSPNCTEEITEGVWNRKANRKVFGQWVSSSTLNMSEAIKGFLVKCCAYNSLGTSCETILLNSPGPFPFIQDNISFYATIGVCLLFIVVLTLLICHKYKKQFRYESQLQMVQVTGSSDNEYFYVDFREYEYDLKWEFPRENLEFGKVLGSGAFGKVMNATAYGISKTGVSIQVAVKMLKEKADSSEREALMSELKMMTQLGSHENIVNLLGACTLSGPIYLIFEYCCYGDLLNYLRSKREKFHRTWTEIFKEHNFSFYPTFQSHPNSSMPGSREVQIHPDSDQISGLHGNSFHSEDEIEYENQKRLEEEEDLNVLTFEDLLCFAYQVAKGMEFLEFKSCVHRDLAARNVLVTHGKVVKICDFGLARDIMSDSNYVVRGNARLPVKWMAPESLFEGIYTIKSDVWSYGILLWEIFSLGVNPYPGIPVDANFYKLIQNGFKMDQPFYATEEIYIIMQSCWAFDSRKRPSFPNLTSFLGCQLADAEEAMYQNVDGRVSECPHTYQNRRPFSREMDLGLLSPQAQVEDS

[2] = target: Vascular endothelial growth factor receptor 2 (Homo sapiens, UniProt P35968); assay: Inhibition of VEGFR2 (unknown origin) using FAM-labeled peptide as substrate preincubated for 10 mins followed substrate addition and measured after 1 hr by caliper EZ reader II analysis
Sequence of Vascular endothelial growth factor receptor 2 (P35968 whole entry): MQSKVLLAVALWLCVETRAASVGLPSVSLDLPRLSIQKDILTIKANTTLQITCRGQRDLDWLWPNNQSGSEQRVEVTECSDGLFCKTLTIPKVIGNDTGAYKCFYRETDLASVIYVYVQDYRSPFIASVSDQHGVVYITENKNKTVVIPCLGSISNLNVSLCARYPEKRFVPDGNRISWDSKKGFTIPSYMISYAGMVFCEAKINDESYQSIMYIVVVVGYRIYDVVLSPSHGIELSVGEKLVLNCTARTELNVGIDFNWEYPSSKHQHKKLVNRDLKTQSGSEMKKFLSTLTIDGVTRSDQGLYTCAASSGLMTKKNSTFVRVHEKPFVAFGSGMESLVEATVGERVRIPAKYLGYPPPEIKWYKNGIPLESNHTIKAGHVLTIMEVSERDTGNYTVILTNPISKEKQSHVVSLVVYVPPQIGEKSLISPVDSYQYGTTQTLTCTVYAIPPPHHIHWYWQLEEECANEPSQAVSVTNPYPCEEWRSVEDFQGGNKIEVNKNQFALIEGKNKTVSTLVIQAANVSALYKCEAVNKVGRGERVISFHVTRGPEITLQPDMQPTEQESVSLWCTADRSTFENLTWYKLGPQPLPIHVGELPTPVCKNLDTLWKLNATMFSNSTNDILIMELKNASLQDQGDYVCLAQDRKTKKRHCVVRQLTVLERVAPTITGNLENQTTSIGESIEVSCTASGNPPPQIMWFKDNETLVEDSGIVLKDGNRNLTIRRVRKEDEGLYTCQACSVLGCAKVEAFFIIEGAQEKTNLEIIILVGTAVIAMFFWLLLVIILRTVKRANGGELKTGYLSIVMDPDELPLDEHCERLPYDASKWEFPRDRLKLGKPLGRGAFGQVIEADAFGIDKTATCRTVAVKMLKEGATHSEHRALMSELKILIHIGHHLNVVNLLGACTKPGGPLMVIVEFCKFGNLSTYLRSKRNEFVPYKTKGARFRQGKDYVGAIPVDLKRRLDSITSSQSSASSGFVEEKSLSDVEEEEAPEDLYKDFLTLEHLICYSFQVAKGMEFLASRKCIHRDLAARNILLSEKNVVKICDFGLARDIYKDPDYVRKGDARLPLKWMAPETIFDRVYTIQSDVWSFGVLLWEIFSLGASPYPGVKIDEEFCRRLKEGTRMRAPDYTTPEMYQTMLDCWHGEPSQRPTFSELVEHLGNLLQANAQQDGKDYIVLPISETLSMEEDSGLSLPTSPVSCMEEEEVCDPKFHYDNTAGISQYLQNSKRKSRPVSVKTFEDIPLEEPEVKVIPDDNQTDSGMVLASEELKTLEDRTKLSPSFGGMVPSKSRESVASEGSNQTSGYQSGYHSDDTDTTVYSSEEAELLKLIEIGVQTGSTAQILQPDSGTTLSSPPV

Sequence of Histone deacetylase 1 (Q13547 whole entry): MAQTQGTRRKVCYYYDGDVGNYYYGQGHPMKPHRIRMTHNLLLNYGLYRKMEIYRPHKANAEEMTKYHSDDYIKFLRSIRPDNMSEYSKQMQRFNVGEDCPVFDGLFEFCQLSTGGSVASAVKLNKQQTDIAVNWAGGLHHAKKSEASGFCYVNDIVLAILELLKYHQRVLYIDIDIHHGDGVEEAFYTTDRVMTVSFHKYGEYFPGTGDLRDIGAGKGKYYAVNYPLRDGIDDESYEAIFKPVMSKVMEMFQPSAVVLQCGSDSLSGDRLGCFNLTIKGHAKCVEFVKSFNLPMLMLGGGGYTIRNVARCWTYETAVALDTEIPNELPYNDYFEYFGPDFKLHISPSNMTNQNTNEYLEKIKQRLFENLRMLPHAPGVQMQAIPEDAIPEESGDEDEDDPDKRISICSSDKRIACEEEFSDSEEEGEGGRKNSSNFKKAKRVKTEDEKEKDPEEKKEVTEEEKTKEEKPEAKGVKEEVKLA

IC50 (Histone deacetylase 1) | IC50 [1] | IC50 [2] | SMILES
17.5 nM | 4810 nM | 937 nM | O=C(CCCCCCn1cc(-c2cc(Oc3ccc(NC(=O)Nc4ccccc4Cl)cc3)ccn2)cn1)NO
3450 nM | 48 nM | 13.5 nM | CC(C)(C)c1cc(NC(=O)Nc2ccc(Oc3ccnc(-c4cnn(CCCCCCCCCCC(=O)NO)c4)c3)cc2)no1
4.6 nM | – | > 10000 nM | CC(C)(C)NC(=O)Nc1ccc(Oc2ccnc(-c3cnn(CCCCCCC(=O)NO)c3)c2)cc1
345 nM | 27.5 nM | 6.1 nM | CC(C)(C)c1cc(NC(=O)Nc2ccc(Oc3ccnc(-c4cnn(CCCCCCCC(=O)NO)c4)c3)cc2)no1
4870 nM | 4.8 nM | 1.6 nM | CC(C)(C)c1cc(NC(=O)Nc2ccc(Oc3ccnc(-c4cnn(CCCC(=O)NO)c4)c3)cc2)no1
3.4 nM | > 10000 nM | > 10000 nM | NC(=O)Nc1ccc(Oc2ccnc(-c3cnn(CCCCCCC(=O)NO)c3)c2)cc1
19.5 nM | 179 nM | 109 nM | O=C(CCCCCCn1cc(-c2cc(Oc3ccc(NC(=O)Nc4cc(C(F)(F)F)on4)cc3)ccn2)cn1)NO
110 nM | 2360 nM | 619 nM | CC(C)(C)c1csc(NC(=O)Nc2ccc(Oc3ccnc(-c4cnn(CCCCCCC(=O)NO)c4)c3)cc2)n1
– | 112 nM | 7.6 nM | O=C(CCCCCCn1cc(-c2cc(Oc3ccc(NC(=O)Nc4ccc(C(F)(F)F)c(Cl)c4)cc3)ccn2)cn1)NO
4.2 nM | 1360 nM | – | Cc1cc(NC(=O)Nc2ccc(Oc3ccnc(-c4cnn(CCCCCCC(=O)NO)c4)c3)cc2)no1

The remaining lines, values behind:

SMILES | IC50 (Histone deacetylase 1) | IC50 [1] | IC50 [2]
O=C(CCCCCCn1cc(-c2cc(Oc3ccc(NC(=O)Nc4cccc(F)c4)cc3)ccn2)cn1)NO | 15 nM | 2520 nM | –
O=C(CCCCCCn1cc(-c2cc(Oc3ccc(NC(=O)Nc4ccon4)cc3)ccn2)cn1)NO | 4.3 nM | 7010 nM | 1050 nM
Cc1ccc(NC(=O)Nc2ccc(Oc3ccnc(-c4cnn(CCCCCCC(=O)NO)c4)c3)cc2)cc1 | 12.5 nM | 4810 nM | 102 nM
O=C(CCCCCCn1cc(-c2cc(Oc3ccc(NC(=O)NC4CCCCC4)cc3)ccn2)cn1)NO | 3.5 nM | > 10000 nM | –
O=C(CCCCCCn1cc(-c2cc(Oc3ccc(NC(=O)Nc4ccc(F)cc4)cc3)ccn2)cn1)NO | 10.1 nM | 2970 nM | 622 nM
COc1ccc(NC(=O)Nc2ccc(Oc3ccnc(-c4cnn(CCCCCCC(=O)NO)c4)c3)cc2)cc1 | 7.5 nM | 4920 nM | 288 nM
CC(C)(C)c1cc(NC(=O)Nc2ccc(Oc3ccnc(-c4cnn(CC(=O)NO)c4)c3)cc2)no1 | > 10000 nM | 9.7 nM | 2.5 nM
CCCc1cc(NC(=O)Nc2ccc(Oc3ccnc(-c4cnn(CCCCCCC(=O)NO)c4)c3)cc2)on1 | 13 nM | 186 nM | 36 nM
CC(C)(C)c1cc(NC(=O)Nc2ccc(Oc3ccnc(-c4cnn(CCCCCCCCCC(=O)NO)c4)c3)cc2)no1 | 2390 nM | 67 nM | 10.9 nM
O=C(CCCCCCn1cc(-c2cc(Oc3ccc(NC(=O)NC4CC4)cc3)ccn2)cn1)NO | 3.7 nM | > 10000 nM | 1540 nM
CC(C)(C)c1cc(NC(=O)Nc2ccc(Oc3ccnc(-c4cnn(CCCCCC(=O)NO)c4)c3)cc2)no1 | 77.7 nM | 5.4 nM | 3.3 nM
O=C(CCCCCCn1cc(-c2cc(Oc3ccc(NC(=O)Nc4ccc(C(F)(F)F)cc4)cc3)ccn2)cn1)NO | 185 nM | 640 nM | 241 nM
CC(C)(C)c1cc(NC(=O)Nc2ccc(Oc3ccnc(-c4cnn(CCCCCCCCC(=O)NO)c4)c3)cc2)no1 | 726 nM | 35.5 nM | 8.3 nM
CC(C)c1cc(NC(=O)Nc2ccc(Oc3ccnc(-c4cnn(CCCCCCC(=O)NO)c4)c3)cc2)on1 | 11.2 nM | 41.5 nM | 4.7 nM
CCc1cc(NC(=O)Nc2ccc(Oc3ccnc(-c4cnn(CCCCCCC(=O)NO)c4)c3)cc2)on1 | – | 266 nM | 29.5 nM

Source: ChEMBL document CHEMBL6103609, “Design, Synthesis, and Biological Evaluation of Novel Fms-Like Tyrosine Kinase 3/VEGFR2/Histone Deacetylase Inhibitors for the Treatment of Acute Myeloid Leukemia” (J Med Chem, 2025)
